Test results taken from publication PMC6981454, “Promising 2,6,9-Trisubstituted Purine Derivatives for Anticancer Compounds: Synthesis, 3D-QSAR, and Preliminary Biological Assays” (International Journal of Molecular Sciences, 2019).
Read-outs that look alike come from different tables or passages of the source.

What was measured:
[1] = tested on: MRC-5; assay: MTT cytotoxicity assay, 72 h, normal control cells; assay type: cell-based, human; conditions: Homo sapiens, MRC5, IC50 ± SD, normal fibroblasts
Experimental: (§1) In our study, the human cancer cell lines used were CFAPC- 1 (pancreatic adenocarcinoma); NCI-H460 (large cell lung); HL-60 (acute promyelocytic leukaemia); CACO2 (colorectal adenocarcinoma); HCT-116 (colorectal carcinoma); K562 (chronic myeloid leukaemia); MCF-7 (breast adenocarcinoma); and MRC-5 control cells (normal fibroblasts).
(§2) CFAPC-1, NCI-H460 H1975, HL-60, HCT-116, CACO2, K562, MCF-7, and MCR-5 were grown and maintained in RPMI 1640 and DMEM F12 as appropriate with 10% fetal bovine serum, 100 UI/mL penicillin–streptomycin, and cultured al 37 °C in 5% CO2 humidified atmosphere. Control cultures were treated with dimethyl sulfoxide (1%) alone at the same concentration as in the purine derivatives treatment. Cell viability was determined by trypan blue dye exclusion. Cell numbers were counted in hemocytometer by light microscopy.
(§3) Cytotoxicity assays were performed by using the MTT reduction method as described in the literature. Briefly, cancer cell lines were plated in a flat-bottom 96-wells plate at 1 × 10^4 cells per well density. Then, the cells were incubated with synthetized compounds at different concentrations (from 0.1 to 100 µM) in 200 µL of 10% fetal bovine serum-RPMI or EMEM culture medium at 37 °C for 72 h. Then, 10 µL of MTT was added at a final concentration of 0.5 mg/mL, incubated at 37 °C for 4 h, and then solubilized with 10% sodium dodecyl sulphate (SDS) in 0.1 mM HCl and incubated overnight at 37 °C. Formazan formation was measured at 570 nm in a multi-well reader (StatFax 4200).

[2] = tested on: HL-60; assay: MTT cytotoxicity assay, 72 h; assay type: cell-based, human; conditions: for Selectivity Index (SI) MRC-5/HL-60: IC50 in MRC-5 / IC50 in HL-60
Experimental: as §1, §2, §3

[3] = tested on: HCT-116; assay: MTT cytotoxicity assay, 72 h; assay type: cell-based, human; conditions: Homo sapiens, HCT-116, IC50 ± SD
Experimental: as §1, §2, §3

[4] = tested on: MCF-7; assay: MTT cytotoxicity assay, 72 h; assay type: cell-based, human; conditions: for IC50: Homo sapiens, MCF7, 72 h, MTT, 72 h, IC50 ± SD; for Selectivity Index (SI) MRC-5/MCF-7: IC50 in MRC-5 / IC50 in MCF-7
Experimental: as §1, §2, §3

[5] = tested on: NCI-H460; assay: MTT cytotoxicity assay, 72 h; assay type: cell-based, human; conditions: for Selectivity Index (SI) MRC-5/NCI-H460: IC50 in MRC-5 / IC50 in NCI-H460
Experimental: as §1, §2, §3

[6] = tested on: CFPAC-1; assay: MTT cytotoxicity assay, 72 h; assay type: cell-based, human; conditions: Homo sapiens, CFPAC-1, IC50 ± SD
Experimental: as §1, §2, §3

[7] = tested on: K562; assay: MTT cytotoxicity assay, 72 h; assay type: cell-based, human; conditions: for IC50: MTT, 72 h, IC50 ± SD; for Selectivity Index (SI) MRC-5/K562: IC50 in MRC-5 / IC50 in K562
Experimental: as §1, §2, §3

[8] = tested on: CACO2; assay: MTT cytotoxicity assay, 72 h; assay type: cell-based, human; conditions: Homo sapiens, Caco-2, IC50 ± SD
[9] = tested on: HL-60 cells; assay: Cell viability by propidium iodide flow cytometry; assay type: cell-based, human; conditions: HL-60, 50 μM, 24 h, PI staining
From the text: Next, in order to determinate the cell death type induced by the most promising compounds, we performed a flow cytometry analysis of cell viability in cell line HL-60 treated with the most promising compounds (selected according to their IC50 values and SI). The HL-60 cancer cells were chosen due to their sensitivity to prepared compounds. […] As a preliminary apoptosis filter, propidium iodide (PI) staining was used through flow cytometry analysis which discriminated a population of viable cells impermeable to PI (PI negative) from necrotic cells PI-permeable (PI positive) and apoptotic cells (the difference of the previous two). The results are shown in Figure 7, illustrating that all purine derivatives tested induced apoptosis on HL-60 cells. Around 40% of apoptotic cells were detected in a culture treated with compounds 7a and 7i, 30% by 7e, 7g, and 7h and 70% by 7d and 7j. […] (For dot plots, see Supplementary Information Figures S1–S3.)
Cell viability was analyzed by flow cytometry as previously described. In this assay, after setting the baseline to exclude cell debris, cells impermeable to propidium iodide (PI negative) are considered as viable. Two populations of PI-permeable dead cells are distinguished based on fluorescence intensity, corresponding to either hypodiploid apoptotic cells or necrotic cells with intact DNA. Here, HL60 cells were incubated with concentrations of 50 µM of each compound for 24 h at 37 °C. Cells were harvested and stained with 10 µg/mL of propidium iodide to determine cell viability. Samples containing roughly 1 × 10^4 cells were evaluated by flow cytometry (FACScanto II; Becton Dickinson, Mountain View, CA) and analyzed using FCS Express v6 software. Three independent biological replicates were performed.

[10] = Homo sapiens, HL-60, 72 h, MTT, 72 h, IC50 ± SD, read-out: IC50 HL-60
[11] = Homo sapiens, NCI-H460, 72 h, MTT, 72 h, IC50 ± SD, read-out: IC50 NCI-H460
[12] = Homo sapiens, HL-60, -logIC50 in molar concentration, Table S1, read-out: Experimental pIC50 (HL-60) (converted)
[13] = Homo sapiens, NCI-H460, -logIC50 in molar concentration, Table S2, read-out: Experimental pIC50 (NCI-H460) (converted)
[14] = MTT, 72 h, IC50 ± SD, read-out: IC50 NCI-H460

SMILES | melting point | IC50 [1] | IC50 [2, 10] | IC50 [3] | IC50 [4] | IC50 [5, 11] | IC50 [6] | IC50 ([7]; Homo sapiens, K562, 72 h) | IC50 [8] | IC50 [2, 12] | Selectivity Index (SI) MRC-5/HL-60 [2] | IC50 ([2]; MTT, 72 h, IC50 ± SD, read-out: IC50 HL-60) | Selectivity Index (SI) MRC-5/MCF-7 [4] | IC50 [5, 13] | Selectivity Index (SI) MRC-5/NCI-H460 [5] | IC50 [5, 14] | Selectivity Index (SI) MRC-5/K562 [7] | IC50 [7] | apoptotic cells [9]
CCn1cnc2c(-c3ccc(OC(F)(F)F)cc3)nc(NC3CCCC3)nc21 [4a, N-cyclopentyl-9-ethyl-6-(4-(trifluoromethoxy)phenyl)-9H-purin-2-amine] | 85 to 87 °C | > 100 µM | 38 ± 3 µM | > 50 µM | > 25 µM | > 100 µM | > 100 µM | > 25 µM | > 100 µM |  |  |  |  |  |  |  |  |  | 
CCCCn1cnc2c(-c3ccc(OC(F)(F)F)cc3)nc(NC3CCCCCC3)nc21 [4i, 9-Butyl-N-cycloheptyl-6-(4-(trifluoromethoxy)phenyl)-9H-purin-2-amine] | 72 to 74 °C | > 100 µM | 19 ± 3.9 µM | > 50 µM | > 25 µM | > 100 µM | > 100 µM | > 25 µM | > 100 µM | 19 µM |  |  |  |  |  |  |  |  | 
CCCCCn1cnc2c(-c3ccc(OC(F)(F)F)cc3)nc(NC3CCCCCC3)nc21 [4j, N-cycloheptyl-9-pentyl-6-(4-(trifluoromethoxy)phenyl)-9H-purin-2-amine] | 50 to 53 °C | > 100 µM | < 6 µM | > 50 µM | > 25 µM | > 100 µM | > 100 µM | > 25 µM | > 100 µM | 6 µM | > 16.7 | 6 ± 0.8 µM |  |  |  |  |  |  | 
CCCCCCn1cnc2c(-c3ccc(OC(F)(F)F)cc3)nc(NC3CCCCCC3)nc21 [4k, N-cycloheptyl-9-Hexyl-6-(4-(trifluoromethoxy)phenyl)-9H-purin-2-amine] | 68 to 70 °C | > 100 µM | 12 ± 0.6 µM | > 50 µM | > 25 µM | > 100 µM | > 100 µM | > 25 µM | > 100 µM | 12 µM |  |  |  |  |  |  |  |  | 
CCCCCn1cnc2c(-c3ccc(OC(F)(F)F)cc3)nc(N3CCC(c4ccccc4)CC3)nc21 [4t, 9-Pentyl-2-(4-phenylpiperidin-1-yl)-6-(4-(trifluoromethoxy)phenyl)-9H-purine] | 150 to 153 °C | > 100 µM | > 50 µM | > 50 µM | > 25 µM | > 100 µM | > 100 µM | > 25 µM | > 100 µM |  |  |  |  |  |  |  |  |  | 
FC(F)(F)c1ccc(N2CCN(c3nc(Cl)nc4c3ncn4C3CCCC3)CC2)nc1 [7c, 2-Chloro-9-cyclopentyl-6-(4-(5-(trifluoromethyl)pyridin-2-yl)piperazin-1-yl)-9H-purine] | 160 to 162 °C | 56 ± 1 µM | 17 ± 2.3 µM | > 50 µM | 0.52 ± 0.05 µM | 4.8 µM | > 100 µM | 0.4 to 1.5 µM | > 100 µM | 17 µM | 3.3 |  | 107.7 | 4.79 µM | 11.7 | 4.79 ± 0.07 µM | 143.6 | 0.39 ± 0.03 µM | 
COc1ccc(N2CCN(c3nc(Cl)nc4c3ncn4C3CCCC3)CC2)cc1 [7j, 2-Chloro-9-cyclopentyl-6-(4-(4-methoxyphenyl)piperazin-1-yl)-9H-purine] |  | 30 ± 1 µM | 1.5 ± 0.07 µM | > 50 µM | 6.61 ± 0.67 µM | < 10 µM | > 100 µM | 3.38 ± 0.71 µM | > 100 µM | 1.5 µM | 20.0 |  | 4.5 | 7.08 µM | 4.2 | 7.08 ± 0.22 µM | 8.8 |  | ~70%
